In general, EC50 refers to the midpoint of the concentration-response curve.

Like-named read-outs stand apart in the source and are kept apart here.

Drawing on patent US20240166681A1, “3'3' CYCLIC DINUCLEOTIDES CONTAINING ISONUCLEOTIDIC UNITS” (INSTITUTE OF ORGANIC CHEMISTRY AND BIOCHEMISTRY AS CR, V. …, priority 2021, published 2024), this text covers EC50 for 17 molecules.

The target of one experiment is WT STING (Homo sapiens, UniProt Q86WV6, H232R). Briefly: 293T WT STING standard reporter assay. The settings on record: 293T wtSTING-FL cells, no digitonin, 7 h incubation, luciferase reporter. It is filed as cell-based. Details: host or cells: 293T (ATCC CRL-3216), stably transfected. On the procedure: After 5 minutes incubation at room temperature (RT), 250 μL of the mixture was added dropwise to the cells in one well. Cells were incubated 36 hours at 37° C. with 5% CO2, and then detached with 0.05% Trypsin and 0.22 g/L EDTA (both cat. #L0941, Biowest, Riverside, USA).
Transfected cells were seeded onto poly-D-lysine coated six well plates at density 50,000 cells per 1 cm^2 in DMEM medium with high glucose containing 10% heat inactivated FBS, 30 μg/mL blasticidin (cat. #ant-b1-05, InvivoGen, San Diego, USA), 0.06 mg/ml Penicillin G and 0.1 mg/ml Streptomycin Sulfate (both cat. #. L0018, Biowest, Riverside, USA). The medium was replenished every 3-4 days until visible colonies of cells resistant to blasticidin were formed.
Blasticidin resistant cells stably expressing WT STING were further transfected with […] plasmid following the same procedure as described above. […] Homogeneous culture of stably double transfected cells was prepared by limiting dilution of cells in 96 well plates and wells with cells were selected that originated from a single cell.
The medium was removed next day and three-fold serial dilutions of compounds in 100 μl medium were added to the cells. The plates with cells were incubated for 7 hours at 37° C. with 5% CO2. After 50 μl of the medium was removed, 30 μl of ONE-Glo™ Luciferase Assay System reagent (cat. #E6120, Promega, Madison, USA) was added to each well and luminescence was read on Synergy H1 (Biotek, Winooski, USA). […] (cat. #tlrl-nacga23), and 2′2′-cGAMP (cat. #tlrl-nacga22) were purchased from Invivogen (San Diego, USA).
For orientation: Reporter assays use an easily measured gene product as a stand-in for the process of interest.

Experiment [1] deals with peripheral blood mononuclear cell (PBMC). Description: Peripheral blood mononuclear cell assay (cytokine levels). Format: cell-based. The settings on record: 1 h with compound, wash, 15 h, average of at least two donors. On the procedure: Selected compounds were tested in an in vitro peripheral blood mononuclear cell (PBMC) assay. Freshly isolated PBMCs were seeded into U-shaped shaped 96-well plates at desity 500,000 cells per well in 50 μl of RPMI 1640 medium supplemented with 10% heat inactivated FBS. Serially dilluted tested compounds were added to wells in 50 μl of cultivation medium and cell were incubated with compounds for 1 h at 37° C. with 5% CO2. Plates with cells were then spun 500 g for 5 minutes and medium was removed. Cells were washed twice with the cell culture medium by the use of centrifugation and gently resuspended in 100 μl medium without compounds. After 15 hour incubation at 37° C. with 5% CO2, the cell culture medium was collected and the levels of interferon-alpha (INF-α), interferon-gamma (INF-γ) and tumor necrosis factor-alpha (TNF-α) were determined with ProcartaPlex Assays (ThermoFisher, Waltham, USA) and MAGPIX System (Merck KGaA, Darmstadt, Germany). GraphPad Prism (San Diego, CA, USA) was used to calculate the 50% effective concentration (EC50) from a 6-point dose-response curve. Values reported are an average of runs from at least two donors.

Chain of WT STING (Q86WV6 whole entry H232R): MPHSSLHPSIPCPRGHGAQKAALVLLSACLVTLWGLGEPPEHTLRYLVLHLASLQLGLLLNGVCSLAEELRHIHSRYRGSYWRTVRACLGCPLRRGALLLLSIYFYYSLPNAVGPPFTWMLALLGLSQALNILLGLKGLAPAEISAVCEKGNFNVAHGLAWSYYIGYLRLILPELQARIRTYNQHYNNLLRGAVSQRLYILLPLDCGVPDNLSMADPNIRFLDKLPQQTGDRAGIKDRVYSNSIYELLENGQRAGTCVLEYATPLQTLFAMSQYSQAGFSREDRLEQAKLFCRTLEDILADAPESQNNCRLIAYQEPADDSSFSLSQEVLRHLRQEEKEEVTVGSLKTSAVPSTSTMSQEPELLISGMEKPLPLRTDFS

As to `CC(C)(C)C(=O)OCOP1(=O)OC[C@H]2OC[C@@H](n3cnc4c(N)ncnc43)[C@@H]2OP(=O)(OCOC(=O)C(C)(C)C)OC[C@H]2O[C@@H](n3cnc4c(N)ncnc43)[C@H](F)[C@@H]2O1` (single isomer, unassigned) [Compound 36a], the EC50 on WT STING was determined as 88 nM.

For `Nc1nc2c(ncn2[C@@H]2O[C@@H]3COP(=O)(O)O[C@@H]4[C@H](O)[C@@H](COP(=O)(O)O[C@@H]2[C@@H]3O)O[C@H]4n2cnc3c(N)ncnc32)c(=O)[nH]1` [2′2′-cGAMP, reference compound], the EC50 on WT STING came to 10200 nM.

On to `CC(C)(C)C(=O)OCOP1(=O)OC[C@H]2OC[C@@H](n3cnc4c(N)ncnc43)[C@@H]2OP(=O)(OCOC(=O)C(C)(C)C)OC[C@H]2O[C@@H](n3cnc4c(N)ncnc43)[C@H](F)[C@@H]2O1` (single isomer, unassigned) [Compound 36c], for which, on WT STING, the EC50 was determined as 52 nM.

`CC1(C(=O)OCOP2(=O)OC[C@H]3OC[C@@H](n4cnc5c(N)ncnc54)[C@@H]3OP(=O)(OCOC(=O)C3(C)CCCCC3)OC[C@H]3O[C@@H](n4cnc5c(N)ncnc54)[C@H](F)[C@@H]3O2)CCCCC1` (single isomer, unassigned) [Compound 56a]: at WT STING, the EC50 was 285 nM.

`CCCCCCCC(=O)OCOP1(=O)OC[C@H]2OC[C@@H](n3cnc4c(N)ncnc43)[C@@H]2OP(=O)(OCOC(=O)CCCCCCC)OC[C@H]2O[C@@H](n3cnc4c(N)ncnc43)[C@H](F)[C@@H]2O1` (single isomer, unassigned) [Compound 58b]: at WT STING, the EC50 worked out at 1 nM.

For `CC(C)(C)C(=O)OCOP1(=O)OC[C@H]2OC[C@@H](n3cnc4c(N)ncnc43)[C@@H]2OP(=O)(OCOC(=O)C(C)(C)C)OC[C@H]2O[C@@H](n3cnc4c(N)ncnc43)[C@H](F)[C@@H]2O1` (single isomer, unassigned) [Compound 36d], the EC50 was 184 nM in experiment [1] (read-out: PBMC EC50 IFN-α), 115 nM in experiment [1] (read-out: PBMC EC50 IFN-γ), 326 nM in experiment [1] (read-out: PBMC EC50 TNF-α) and 28 nM on WT STING.

Take `CCC(C)(C)C(=O)OCOP1(=O)OC[C@H]2OC[C@@H](n3cnc4c(N)ncnc43)[C@@H]2OP(=O)(OCOC(=O)C(C)(C)CC)OC[C@H]2O[C@@H](n3cnc4c(N)ncnc43)[C@H](F)[C@@H]2O1` (single isomer, unassigned) [Compound 57b]: the EC50 at WT STING stood at 18 nM.

For the molecule `CC1(C(=O)OCOP2(=O)OC[C@H]3OC[C@@H](n4cnc5c(N)ncnc54)[C@@H]3OP(=O)(OCOC(=O)C3(C)CCCCC3)OC[C@H]3O[C@@H](n4cnc5c(N)ncnc54)[C@H](F)[C@@H]3O2)CCCCC1` (single isomer, unassigned) [Compound 56c], the EC50 at WT STING came out at 21 nM.

As for `CCC(C)(C)C(=O)OCOP1(=O)OC[C@H]2OC[C@@H](n3cnc4c(N)ncnc43)[C@@H]2OP(=O)(OCOC(=O)C(C)(C)CC)OC[C@H]2O[C@@H](n3cnc4c(N)ncnc43)[C@H](F)[C@@H]2O1` (single isomer, unassigned) [Compound 57c], the EC50 at WT STING amounted to 13 nM.

With `CC1(C(=O)OCOP2(=O)OC[C@H]3OC[C@@H](n4cnc5c(N)ncnc54)[C@@H]3OP(=O)(OCOC(=O)C3(C)CCCCC3)OC[C@H]3O[C@@H](n4cnc5c(N)ncnc54)[C@H](F)[C@@H]3O2)CCCCC1` (single isomer, unassigned) [Compound 56d], the EC50 stood at 325 nM in experiment [1] (read-out: PBMC EC50 IFN-α), 48 nM in experiment [1] (read-out: PBMC EC50 IFN-γ), 159 nM in experiment [1] (read-out: PBMC EC50 TNF-α) and 41 nM at WT STING.

For `CCCCCCCC(=O)OCOP1(=O)OC[C@H]2OC[C@@H](n3cnc4c(N)ncnc43)[C@@H]2OP(=O)(OCOC(=O)CCCCCCC)OC[C@H]2O[C@@H](n3cnc4c(N)ncnc43)[C@H](F)[C@@H]2O1` (single isomer, unassigned) [Compound 58c], the EC50 on WT STING was 2 nM.

As to `CCCCCCCC(=O)OCOP1(=O)OC[C@H]2OC[C@@H](n3cnc4c(N)ncnc43)[C@@H]2OP(=O)(OCOC(=O)CCCCCCC)OC[C@H]2O[C@@H](n3cnc4c(N)ncnc43)[C@H](F)[C@@H]2O1` (single isomer, unassigned) [Compound 58d], the EC50 in experiment [1] (read-out: PBMC EC50 IFN-α) came out at 38 nM; in experiment [1] (read-out: PBMC EC50 IFN-γ), 16 nM; in experiment [1] (read-out: PBMC EC50 TNF-α), 37 nM; on WT STING, 2 nM.

On to `CCCCCCCC(=O)OCOP1(=O)OC[C@H]2OC[C@@H](n3cnc4c(N)ncnc43)[C@@H]2OP(=O)(OCOC(=O)CCCCCCC)OC[C@H]2O[C@@H](n3cnc4c(N)ncnc43)[C@H](F)[C@@H]2O1` (single isomer, unassigned) [Compound 58a], for which the EC50 at WT STING came to 5 nM.

As for `CCC(C)(C)C(=O)OCOP1(=O)OC[C@H]2OC[C@@H](n3cnc4c(N)ncnc43)[C@@H]2OP(=O)(OCOC(=O)C(C)(C)CC)OC[C@H]2O[C@@H](n3cnc4c(N)ncnc43)[C@H](F)[C@@H]2O1` (single isomer, unassigned) [Compound 57d], the EC50 in experiment [1] (read-out: PBMC EC50 IFN-α) came out at 258 nM; in experiment [1] (read-out: PBMC EC50 IFN-γ), 80 nM; in experiment [1] (read-out: PBMC EC50 TNF-α) it was 206 nM; at WT STING, 14 nM.

Take `CC(C)(C)C(=O)OCOP1(=O)OC[C@H]2OC[C@@H](n3cnc4c(N)ncnc43)[C@@H]2OP(=O)(OCOC(=O)C(C)(C)C)OC[C@H]2O[C@@H](n3cnc4c(N)ncnc43)[C@H](F)[C@@H]2O1` (single isomer, unassigned) [Compound 36b]: the EC50 on WT STING turned out to be 77 nM.

In the case of `CCC(C)(C)C(=O)OCOP1(=O)OC[C@H]2OC[C@@H](n3cnc4c(N)ncnc43)[C@@H]2OP(=O)(OCOC(=O)C(C)(C)CC)OC[C@H]2O[C@@H](n3cnc4c(N)ncnc43)[C@H](F)[C@@H]2O1` (single isomer, unassigned) [Compound 57a], the EC50 at WT STING stood at 32 nM.

As for `CC1(C(=O)OCOP2(=O)OC[C@H]3OC[C@@H](n4cnc5c(N)ncnc54)[C@@H]3OP(=O)(OCOC(=O)C3(C)CCCCC3)OC[C@H]3O[C@@H](n4cnc5c(N)ncnc54)[C@H](F)[C@@H]3O2)CCCCC1` (single isomer, unassigned) [Compound 56b], at WT STING, the EC50 was 44 nM.
